Columns and labels:
Format in all cases: physicochemical
[1] = Evaluation of light resistance of thermal transfer recording sheets, xenon tester; details: thermal transfer recording sheet containing the compound; xenon tester 50 hours, 0.39 W/m^2 at 340 nm, 40° C., relative humidity 60%
Protocol: Ink (14) of the present invention was prepared by gradually adding 5 parts of a polyvinyl butyral resin (Denka 3000-K, manufactured by Denki Kagaku Kogyo K.K.) to a solution of 13.5 parts of Compound (4), as the water-insoluble coloring compound of the present invention, in a mixture of 45 parts of methyl ethyl ketone and 45 parts of toluene with stirring.
Ink (14) was applied onto a polyethylene terephthalate film (Lumirror, manufactured by Toray Industries, Inc.) having a thickness of 4.5 μm so as to have a dried thickness of 1 μm and was dried to produce thermal transfer recording sheet (4).
(§1) Each of the resulting color filters and the thermal transfer recording sheets was charged in a xenon tester (Atlas Ci4000, manufactured by Suga Test Instruments Co., Ltd.) and was subjected to exposure conditions (irradiance: 0.39 W/m^2 at 340 nm, temperature: 40° C., relative humidity: 60%) for 50 hours. The reflection densities of printed matters were measured before and after the test. The color difference (ΔE) was calculated from the initial chromaticity values a0*, b0*, L0* and the chromaticity values a*, b*, L* after the exposure by the following expression: ΔE=√{square root over ((a*−a0*)^2+(b*−b0*)^2+(L*−L0*)^2)} [Math. 2] The evaluation criteria are as follows: • A: ΔE<3.50 • B: 3.50≦ΔE<5.00 • C: 5.00≦ΔE

[2] = Light resistance evaluation of compound: ink image samples on paper, xenon tester; design: key to Light resistance ΔE (color difference): ΔE = Euclidean distance of L*a*b* before vs after exposure; details: ink image sample on paper; xenon tester 10 hours, 0.39 W/m^2 at 340 nm, 40° C., relative humidity 60%
Protocol: Ink (1) of the present invention was prepared by mixing 5 parts of Compound (1) as the water-insoluble coloring compound of the present invention, 350 parts of toluene, 350 parts of ethyl acetate, and 300 parts of 2-butanone.
Inks (1), (2), (4), (8), (13), (15), (23), (28), (29), and (30) and Comparative Inks (1) and (2) were each applied onto paper for contrast ratio measurement by bar coating (Bar No. 10) and were air-dried overnight to produce image samples. Chromaticity values (L*, a*, b*) in the L*a*b* color system of each image sample were measured with a reflection densitometer SpectroLino (manufactured by Gretag Macbeth AG).
as §1, with “the image samples produced in” for “the resulting color filters and”, “the chromaticity measurement” for “the thermal transfer recording sheets”, “for 10” for “for 50”, “b*, L” for “b*, L*”, “[Math. 1]” for “[Math. 2]”

[3] = Evaluation of light resistance of color filters, xenon tester; details: color filter containing the compound; xenon tester 50 hours, 0.39 W/m^2 at 340 nm, 40° C., relative humidity 60%
Protocol: Ink (11) of the present invention was prepared by mixing 12 parts of Compound (1) as the water-insoluble coloring compound of the present invention and 120 parts of cyclohexanone and dispersing the mixture with an attritor (manufactured by Mitsui Mining Co., Ltd.) for 1 hour.
Twenty-two parts of Ink (11) was slowly added to a solution of 6.7 parts of an acrylic copolymer composition (weight average molecular weight Mw: 10000) composed of, as a monomer ratio, 40% by mass of n-butyl methacrylate, 30% by mass of acrylic acid, and 30% by mass of hydroxyethyl methacrylate, 1.3 parts of dipentaerythritol pentaacrylate, and 0.4 parts of 2-benzyl-2-dimethylamino-1-(4-morpholinophenyl)-butanone (photopolymerization initiator) in 96 parts of cyclohexanone, followed by stirring at room temperature for 3 hours. The reaction solution was filtered through a filter of 1.5 μm pore size to yield color filter yellow resist composition (1) of the present invention.
Color filter yellow resist composition (1) was spin-coated on a glass substrate and was then dried at 90° C. for 3 min, and the entire surface was then exposed to light and post-cured at 180° C. to produce color filter (1).
as §1

With `CCCCC(CC)CN(CC(CC)CCCC)C(=O)c1cccc(/N=N/c2c(C)c(C#N)c(=O)n(N(C)C)c2O)c1` (stereo not drawn) [Compound (13)] the “Light resistance ΔE (color difference)” value [1] was 3.37, the “Light resistance ΔE, evaluation grade” value [1] was “A (A: ΔE<3.50)” and the “Light resistance ΔE (color difference)” value [2] was 3.98. The “Light resistance ΔE, evaluation grade” value [2] was “B (B: 3.50≦ΔE<5.00)”.
For `CCCCC(CC)CN(CC(CC)CCCC)C(=O)c1cccc(/N=N/c2c(C)c(C#N)c(=O)n(N)c2O)c1` (stereo not drawn) [Compound (4)], the “Light resistance ΔE (color difference)” value [1] was 2.76, the “Light resistance ΔE, evaluation grade” value [1] was “A (A: ΔE<3.50)” and the “Light resistance ΔE (color difference)” value [2] was 1.70. For the same molecule, the “Light resistance ΔE, evaluation grade” value [2] was “A (A: ΔE<3.50)”.
With `Cc1c(/N=N/c2ccccc2)c(O)n(N)c(=O)c1C#N` [Comparative Compound (1), reference compound] the “Light resistance ΔE (color difference)” value [1] was 15.1, the “Light resistance ΔE, evaluation grade” value [1] was “C (C: 5.00≦ΔE)” and the “Light resistance ΔE (color difference)” value [3] was 12.8. For the same molecule, the “Light resistance ΔE, evaluation grade” value [3] was “C (C: 5.00≦ΔE)”, the “Light resistance ΔE (color difference)” value [2] was 10.6 and the “Light resistance ΔE, evaluation grade” value [2] was “C (C: 5.00≦ΔE)”.
With `CCCCC(CC)CN(CC(CC)CCCC)S(=O)(=O)c1ccc(/N=N/c2c(C)c(C#N)c(=O)n(N(C)C(=O)C(C)(C)C)c2O)cc1` (stereo not drawn) [Compound (29)] the “Light resistance ΔE (color difference)” value [1] was 2.56, the “Light resistance ΔE, evaluation grade” value [1] was “A (A: ΔE<3.50)” and the “Light resistance ΔE (color difference)” value [2] was 3.77. For the same molecule, the “Light resistance ΔE, evaluation grade” value [2] was “B (B: 3.50≦ΔE<5.00)”.
With `CCCCC(CC)CN(CC(CC)CCCC)C(=O)c1ccc(/N=N/c2c(C)c(C#N)c(=O)n(N(CCCC)CCCC)c2O)cc1` (stereo not drawn) [Compound (30)] the “Light resistance ΔE (color difference)” value [1] was 4.89, the “Light resistance ΔE, evaluation grade” value [1] was “B (B: 3.50≦ΔE<5.00)” and the “Light resistance ΔE (color difference)” value [2] was 2.44. For the same molecule, the “Light resistance ΔE, evaluation grade” value [2] was “A (A: ΔE<3.50)”.
In the case of `CCCCC(CC)CN(CC(CC)CCCC)S(=O)(=O)c1ccc(/N=N/c2c(C)c(C#N)c(=O)n(N)c2O)cc1` (stereo not drawn) [Compound (23)], the “Light resistance ΔE (color difference)” value [1] is reported as 2.54, the “Light resistance ΔE, evaluation grade” value [1] is reported as “A (A: ΔE<3.50)” and the “Light resistance ΔE (color difference)” value [2] is reported as 2.37. The “Light resistance ΔE, evaluation grade” value [2] was “A (A: ΔE<3.50)”.
In the case of `CCCCC(CC)CN(CC(CC)CCCC)C(=O)c1ccc(/N=N/c2c(C)c(C#N)c(=O)n(N3CCCCC3)c2O)cc1` (stereo not drawn) [Compound (28)], the “Light resistance ΔE (color difference)” value [1] is reported as 2.32, the “Light resistance ΔE, evaluation grade” value [1] is reported as “A (A: ΔE<3.50)” and the “Light resistance ΔE (color difference)” value [2] is reported as 1.64. The “Light resistance ΔE, evaluation grade” value [2] was “A (A: ΔE<3.50)”.
In the case of `CCCCC(CC)CN(CC(CC)CCCC)C(=O)c1ccccc1/N=N/c1c(C)c(C#N)c(=O)n(N)c1O` (stereo not drawn) [Compound (1)], the “Light resistance ΔE (color difference)” value [3] is reported as 2.99, the “Light resistance ΔE, evaluation grade” value [3] is reported as “A (A: ΔE<3.50)” and the “Light resistance ΔE (color difference)” value [2] is reported as 3.64. For the same molecule, the “Light resistance ΔE, evaluation grade” value [2] was “B (B: 3.50≦ΔE<5.00)”.
For `CCCCC(CC)CN(CC(CC)CCCC)C(=O)c1cccc(/N=N/c2c(C)c(C#N)c(=O)n(NC(=O)C(CC)CCCC)c2O)c1` (stereo not drawn) [Compound (15)], the “Light resistance ΔE (color difference)” value [3] was 4.21, the “Light resistance ΔE, evaluation grade” value [3] was “B (B: 3.50≦ΔE<5.00)” and the “Light resistance ΔE (color difference)” value [2] was 4.32. For the same molecule, the “Light resistance ΔE, evaluation grade” value [2] was “B (B: 3.50≦ΔE<5.00)”.
For `CCCCC(CC)CN(CC(CC)CCCC)C(=O)c1ccc(/N=N/c2c(-c3ccccc3)c(C#N)c(=O)n(NC(=O)c3ccccc3)c2O)cc1` (stereo not drawn) [Compound (8)], the “Light resistance ΔE (color difference)” value [3] was 2.68, the “Light resistance ΔE, evaluation grade” value [3] was “A (A: ΔE<3.50)” and the “Light resistance ΔE (color difference)” value [2] was 2.81. The “Light resistance ΔE, evaluation grade” value [2] was “A (A: ΔE<3.50)”.

From patent publication US9382426B2, “Water-insoluble coloring compound, ink, thermal transfer recording sheet, and color filter resist composition” (CANON KABUSHIKI KAISHA, priority 2012, dated 2016)
